# Assay results published in ChEMBL document CHEMBL3758181, “New approach towards the synthesis of selenosemicarbazones, useful compounds for Chagas' disease” (Eur J Med Chem, 2016).
# Active and inactive are the calls of the source. The rule behind the calls is not given here.
# Key:
# Trypanosoma cruzi [1] = assay: (§1) Antitrypanosomal activity against trypomastigotes stage of Trypanosoma cruzi strain CL Brener infected in acute chagas BALB/c mouse model assessed as survival rate at 10 mg/kg/day, po administered for 14 days started on day 9 post infection measured at 30 to 60 days; format: functional
# Trypanosoma cruzi [2] = assay: Antitrypanosomal activity against epimastigote stage of Trypanosoma cruzi Dm28c after 72 hrs by resazurin dye based microplate reader analysis; format: functional
# Trypanosoma cruzi [3] = assay: as §1, with “time for maximum parasitaemia parasitaemia” for “survival rate”, “by Neubauer chamber analysis (reference value: 26 days)” for “measured at 30 to 60 days”; format: functional
# [4] = Selectivity index, ratio of CC50 for African green monkey Vero cells to IC50 for epimastigote stage of Trypanosoma cruzi Dm28c; format: functional
# Trypanosoma cruzi [5] = assay: as §1, with “assessed as reduction in parasitaemia at 10” for “assessed as survival rate at 10”, “60 days by Neubauer chamber analysis relative to control” for “60 days”; format: functional; parameters: scale not given: the % may be the effect or the level left
# [6] = Toxicity in acute chagas BALB/c mouse model infected with trypomastigotes stage of Trypanosoma cruzi strain CL Brener assessed as mortality at 50 mg/kg/day, po administered for 14 days started on day 9 post infection measured on day 20; format: organism-based; settings: in vivo
# Mus musculus = assay: Toxicity in acute chagas BALB/c mouse model infected with trypomastigotes stage of Trypanosoma cruzi strain CL Brener assessed as mortality at 50 mg/kg/day, po administered for 14 days started on day 9 post infection measured at 30 to 60 days; format: organism-based; settings: in vivo
# Trypanosoma cruzi [7] = assay: Antitrypanosomal activity against trypomastigotes stage of Trypanosoma cruzi strain CL Brener infected in acute chagas BALB/c mouse model assessed as survival rate at 50 mg/kg/day, po administered for 14 days started on day 9 post infection measured at 30 to 60 days; format: functional, organism-based
Compound,IC50 (Trypanosoma cruzi [2]) [µM],also measured
C/C(=N\NC(N)=[Se])c1cccc(Br)c1,1.2,survival at 10 mg/kg/day (Trypanosoma cruzi [1]): 71%; Time (Trypanosoma cruzi [3]): 26 days; Ratio CC50/IC50 [4]: 39; Activity (Trypanosoma cruzi [5]): 50%; mortality at 336 h [6]: 100%
C/C(=N\NC(N)=[Se])c1ccc(Cl)c(Cl)c1,50.2,
COc1ccc(/C=N/NC(N)=[Se])cc1,25.5,
O=C(Cn1ccnc1[N+](=O)[O-])NCc1ccccc1 [BENZNIDAZOLE],12.5,Activity (Mus musculus): Non-toxic; Activity (Trypanosoma cruzi [7]): Active; Ratio CC50/IC50 [4]: 25
CN(C)c1ccc(/C=N/NC(N)=[Se])cc1,26.2,
C/C(=N\NC(N)=[Se])C(C)C,50.2,
C/C(=N\NC(N)=[Se])c1ccccc1,12.4,
C/C(=N\NC(N)=[Se])c1cccc(Cl)c1,12.5,
CC/C(=N\NC(N)=[Se])c1cccc(C(F)(F)F)c1,6.5,
C/C(=N\NC(N)=[Se])c1cccc(C)c1,12.2,
